Laboratory results taken from patent US20220331303A1, “USE OF AN OREXIN 2 RECEPTOR AGONIST FOR THE TREATMENT OF EXCESSIVE SLEEPINESS” (Takeda Pharmaceutical Company Limited, priority 2019, published 2022).
“Also recorded” adds a separate entry of the source. Read-outs that look alike come from different tables or passages of the source.

Assay: Plasma PK of Compound A after a single 9-hour IV infusion in sleep-deprived healthy male subjects
Format: in vivo, human
Conditions: for concentration at 3 h: 3 h post infusion end
Description: This was a phase 1b, single-center, randomized, double-blind, double-dummy, placebo- and active-controlled, 4-period Williams design crossover study to evaluate the PK, PD, and safety of Compound A in sleep-deprived healthy volunteers. Compound A was administered as a 9-hour IV infusion.
Healthy adult male subjects aged 18 to 40 years, inclusive, who satisfied the inclusion and exclusion criteria were enrolled in the trial. On Day 1 of treatment period 1, eligible subjects were equally randomized to 4 treatment sequence groups (sequence 1 to 4) which defined the order of administration for Compound A LD, Compound A HD (both delivered as a 9-hour IV infusion), modafinil 300 mg, and placebo.
During the day before dosing on Day 1, participants were administered the KSS at scheduled timepoints. A practice MWT session was performed on Day 1 treatment period 1 (only once during the entire study) to familiarize subjects with the procedures. Study drug was administered in the clinic in the evening on Day 1 of each treatment period. Subjects underwent the MWT and KSS at specified timepoints after the start of the infusion. Subjects were required to stay awake between the MWT tests. Following completion of the IV infusion on Day 2, subjects underwent an additional MWT test. When the final MWT test and cognitive testing were completed, subjects were allowed to sleep (recovery sleep) for approximately 6 hours. PSG recording was collected during this time. Subjects were discharged from the unit after completion on Day 2 with continuing actigraphy upon discharge (to begin on Day −6 before the next treatment period). The interval between each subsequent treatment period was at least 7 days to ensure that the subject's circadian rhythm had returned to a normal cycle. Subject's vital signs, including BP, were monitored during the dosing and testing period. Blood samples for determination of Compound A plasma concentrations were collected at specified timepoints on Days 1 and 2 of each treatment period. Subjects completed the Columbia-Suicide Severity Rating Scale (C-SSRS) during screening, before study drug administration, and before discharge on Day 2 of each treatment period.
Plasma concentrations were tabulated, and descriptive statistics were calculated for each Compound A dose level and are listed in Tables 3-6 for Compound A. The mean plasma concentration versus time plots for Compound A are shown in FIG. 1.

[1] = 2.55-fold increase in dose (44 to 112 mg)

Fold increase in AUClast [1]: 2.45 fold
Fold increase in AUC∞ [1]: 2.46 fold
Fold increase in Ceoi [1]: 2.45 fold
Fold increase in Cmax [1]: 2.52 fold
Mean plasma concentration as share of the observed maximum concentration (by 4 hours after start of infusion, 44 mg and 112 mg): more than 80%
concentration at 1 h (male, human, plasma, iv, 44 mg, 44 mg 9-h IV infusion, 1 h post infusion start, read-out: Plasma concentration (GM)): 63.1 ng/mL
concentration at 1 h (male, human, plasma, iv, 44 mg, 44 mg 9-h IV infusion, 1 h post infusion start, read-out: Plasma concentration (Mean)): 64.4 ng/mL
concentration at 1 h (male, human, plasma, iv, 44 mg, 44 mg 9-h IV infusion, 1 h post infusion start, read-out: Plasma concentration (Median)): 65.5 ng/mL
concentration at 2 h (male, human, plasma, iv, 44 mg, 44 mg 9-h IV infusion, 2 h post infusion start, read-out: Plasma concentration (GM)): 72.9 ng/mL
concentration at 2 h (male, human, plasma, iv, 44 mg, 44 mg 9-h IV infusion, 2 h post infusion start, read-out: Plasma concentration (Mean)): 74 ng/mL
concentration at 2 h (male, human, plasma, iv, 44 mg, 44 mg 9-h IV infusion, 2 h post infusion start, read-out: Plasma concentration (Median)): 72.6 ng/mL
concentration at 4 h (male, human, plasma, iv, 44 mg, 44 mg 9-h IV infusion, 4 h post infusion start, read-out: Plasma concentration (GM)): 88.3 ng/mL
concentration at 4 h (male, human, plasma, iv, 44 mg, 44 mg 9-h IV infusion, 4 h post infusion start, read-out: Plasma concentration (Mean)): 89.3 ng/mL
concentration at 4 h (male, human, plasma, iv, 44 mg, 44 mg 9-h IV infusion, 4 h post infusion start, read-out: Plasma concentration (Median)): 88.2 ng/mL
concentration at 6 h (male, human, plasma, iv, 44 mg, 44 mg 9-h IV infusion, 6 h post infusion start, read-out: Plasma concentration (GM)): 97.8 ng/mL
concentration at 6 h (male, human, plasma, iv, 44 mg, 44 mg 9-h IV infusion, 6 h post infusion start, read-out: Plasma concentration (Mean)): 98.7 ng/mL
concentration at 6 h (male, human, plasma, iv, 44 mg, 44 mg 9-h IV infusion, 6 h post infusion start, read-out: Plasma concentration (Median)): 97.4 ng/mL
concentration at 9 h (male, human, plasma, iv, 44 mg, 44 mg 9-h IV infusion, 9 h post infusion start, read-out: Plasma concentration (GM)): 102 ng/mL
concentration at 9 h (male, human, plasma, iv, 44 mg, 44 mg 9-h IV infusion, 9 h post infusion start, read-out: Plasma concentration (Mean)): 103 ng/mL
concentration at 9 h (male, human, plasma, iv, 44 mg, 44 mg 9-h IV infusion, 9 h post infusion start, read-out: Plasma concentration (Median)): 101 ng/mL
AUC(0-t) (male, human, plasma, iv, 44 mg, 44 mg [LD] single 9-hour IV infusion, read-out: AUClast (GM)): 933 ng·h/mL
AUC(0-t) (male, human, plasma, iv, 44 mg, 44 mg [LD] single 9-hour IV infusion, read-out: AUClast (Mean)): 940 ng·h/mL
AUC(0-t) (male, human, plasma, iv, 44 mg, 44 mg [LD] single 9-hour IV infusion, read-out: AUClast (Median)): 888 ng·h/mL
AUC(0-inf) (male, human, plasma, iv, 44 mg, 44 mg [LD] single 9-hour IV infusion, read-out: AUC∞ (GM)): 955 ng·h/mL
AUC(0-inf) (male, human, plasma, iv, 44 mg, 44 mg [LD] single 9-hour IV infusion, read-out: AUC∞ (Mean)): 964 ng·h/mL
AUC(0-inf) (male, human, plasma, iv, 44 mg, 44 mg [LD] single 9-hour IV infusion, read-out: AUC∞ (Median)): 911 ng·h/mL
clearance (male, human, plasma, iv, 44 mg, 44 mg [LD] single 9-hour IV infusion, read-out: CL (Mean) (converted)): 773 mL/min
clearance (male, human, plasma, iv, 44 mg, 44 mg [LD] single 9-hour IV infusion, read-out: CL (Median) (converted)): 805 mL/min
Cmax (male, human, plasma, iv, 44 mg, 44 mg [LD] single 9-hour IV infusion, read-out: Cmax (GM)): 106 ng/mL
Cmax (male, human, plasma, iv, 44 mg, 44 mg [LD] single 9-hour IV infusion, read-out: Cmax (Mean)): 106 ng/mL
Cmax (male, human, plasma, iv, 44 mg, 44 mg [LD] single 9-hour IV infusion, read-out: Cmax (Median)): 102 ng/mL
Vd (male, human, plasma, iv, 44 mg, 44 mg [LD] single 9-hour IV infusion, read-out: Vss (Mean)): 107 L
Vd (male, human, plasma, iv, 44 mg, 44 mg [LD] single 9-hour IV infusion, read-out: Vss (Median)): 99.2 L
Vd (male, human, plasma, iv, 44 mg, 44 mg [LD] single 9-hour IV infusion, read-out: Vz (Mean)): 207 L
Vd (male, human, plasma, iv, 44 mg, 44 mg [LD] single 9-hour IV infusion, read-out: Vz (Median)): 211 L
Tmax (male, human, plasma, iv, 44 mg, 44 mg [LD] single 9-hour IV infusion, read-out: tmax (Mean)): 8.15 h
Tmax (male, human, plasma, iv, 44 mg, 44 mg [LD] single 9-hour IV infusion, read-out: tmax (Median)): 9 h
concentration at 0.17 h (male, human, plasma, iv, 112 mg, 112 mg 9-h IV infusion, 0.17 h post infusion end, read-out: Plasma concentration (GM)): 194 ng/mL
concentration at 0.5 h (male, human, plasma, iv, 112 mg, 112 mg 9-h IV infusion, 0.5 h post infusion end, read-out: Plasma concentration (GM)): 122 ng/mL
concentration at 1 h (male, human, plasma, iv, 112 mg, 112 mg 9-h IV infusion, 1 h post infusion end, read-out: Plasma concentration (GM)): 97.5 ng/mL
concentration at 2 h (male, human, plasma, iv, 112 mg, 112 mg 9-h IV infusion, 2 h post infusion end, read-out: Plasma concentration (GM)): 56.7 ng/mL
concentration at 3 h (male, human, plasma, iv, 112 mg, 112 mg 9-h IV infusion, read-out: Plasma concentration (GM)): 50.8 ng/mL
concentration at 3 h (male, human, plasma, iv, 112 mg, 112 mg 9-h IV infusion, read-out: Plasma concentration (Median)): 54 ng/mL
concentration at 4 h (male, human, plasma, iv, 112 mg, 112 mg 9-h IV infusion, 4 h post infusion end, read-out: Plasma concentration (GM)): 40.4 ng/mL
concentration at 4 h (male, human, plasma, iv, 112 mg, 112 mg 9-h IV infusion, 4 h post infusion end, read-out: Plasma concentration (Median)): 44.7 ng/mL
concentration at 6 h (male, human, plasma, iv, 112 mg, 112 mg 9-h IV infusion, 6 h post infusion end, read-out: Plasma concentration (GM)): 23.6 ng/mL
concentration at 6 h (male, human, plasma, iv, 112 mg, 112 mg 9-h IV infusion, 6 h post infusion end, read-out: Plasma concentration (Median)): 23.4 ng/mL
concentration at 9 h (male, human, plasma, iv, 112 mg, 112 mg 9-h IV infusion, 9 h post infusion end, read-out: Plasma concentration (GM)): 13 ng/mL
concentration at 9 h (male, human, plasma, iv, 112 mg, 112 mg 9-h IV infusion, 9 h post infusion end, read-out: Plasma concentration (Median)): 11.9 ng/mL
AUC(0-t) (male, human, plasma, iv, 112 mg, 112 mg [HD] single 9-hour IV infusion, read-out: AUClast (GM)): 2300 ng·h/mL
AUC(0-t) (male, human, plasma, iv, 112 mg, 112 mg [HD] single 9-hour IV infusion, read-out: AUClast (Mean)): 2300 ng·h/mL
AUC(0-t) (male, human, plasma, iv, 112 mg, 112 mg [HD] single 9-hour IV infusion, read-out: AUClast (Median)): 2300 ng·h/mL
AUC(0-inf) (male, human, plasma, iv, 112 mg, 112 mg [HD] single 9-hour IV infusion, read-out: AUC∞ (GM)): 2360 ng·h/mL
AUC(0-inf) (male, human, plasma, iv, 112 mg, 112 mg [HD] single 9-hour IV infusion, read-out: AUC∞ (Mean)): 2370 ng·h/mL
AUC(0-inf) (male, human, plasma, iv, 112 mg, 112 mg [HD] single 9-hour IV infusion, read-out: AUC∞ (Median)): 2380 ng·h/mL
clearance (male, human, plasma, iv, 112 mg, 112 mg [HD] single 9-hour IV infusion, read-out: CL (Mean) (converted)): 793 mL/min
clearance (male, human, plasma, iv, 112 mg, 112 mg [HD] single 9-hour IV infusion, read-out: CL (Median) (converted)): 785 mL/min
Cmax (male, human, plasma, iv, 112 mg, 112 mg [HD] single 9-hour IV infusion, read-out: Cmax (GM)): 266 ng/mL
Cmax (male, human, plasma, iv, 112 mg, 112 mg [HD] single 9-hour IV infusion, read-out: Cmax (Mean)): 268 ng/mL
Cmax (male, human, plasma, iv, 112 mg, 112 mg [HD] single 9-hour IV infusion, read-out: Cmax (Median)): 260 ng/mL
Vd (male, human, plasma, iv, 112 mg, 112 mg [HD] single 9-hour IV infusion, read-out: Vss (Mean)): 112 L
Vd (male, human, plasma, iv, 112 mg, 112 mg [HD] single 9-hour IV infusion, read-out: Vss (Median)): 112 L
Vd (male, human, plasma, iv, 112 mg, 112 mg [HD] single 9-hour IV infusion, read-out: Vz (Mean)): 223 L
Vd (male, human, plasma, iv, 112 mg, 112 mg [HD] single 9-hour IV infusion, read-out: Vz (Median)): 216 L
Tmax (male, human, plasma, iv, 112 mg, 112 mg [HD] single 9-hour IV infusion, read-out: tmax (Mean)): 7.88 h
Tmax (male, human, plasma, iv, 112 mg, 112 mg [HD] single 9-hour IV infusion, read-out: tmax (Median)): 9 h
half-life (male, human, plasma, after end of 9-h IV infusion, biphasic decline, read-out: Mean terminal half-life (t1/2z) (converted)): ~3 h
Structure (SMILES): COC(=O)N1CCC[C@H](NS(C)(=O)=O)[C@@H]1CO[C@H]1CC[C@@H](c2ccccc2)CC1 [Compound A, methyl (2R,3S)-3-((methylsulfonyl)amino)-2-(((cis-4-phenylcyclohexyl)oxy)methyl)piperidine-1-carboxylate]
Dose proportionality of systemic exposure (between 44 and 112 mg dose levels): approximately dose-proportionately; also recorded: approximately dose proportionately
